Results reported in ChEMBL document CHEMBL3259640 (J Med Chem, 2014).
Converted amounts (≈) assume the structure as drawn.

How the values were obtained:
[1] = system: HeLa; assay: Antiproliferative activity against human HeLa cells assessed as cell viability after 96 hrs by CellTiter96 assay; format: functional, cell-based
[2] = system: K562; assay: Antiproliferative activity against human K562 cells assessed as cell viability after 96 hrs by CellTiter96 assay; format: functional, cell-based; conditions: K562, 96 h
[3] = system: MDA-MB-468; assay: Antiproliferative activity against human MDA-MB-468 cells assessed as cell viability after 96 hrs by CellTiter96 assay; format: functional, cell-based; conditions: MDA-MB-468, 96 h
[4] = system: MDA-MB-231; assay: Antiproliferative activity against human MDA-MB-231 cells assessed as cell viability after 96 hrs by CellTiter96 assay; format: functional, cell-based; conditions: MDA-MB-231, 96 h
[5] = Solubility of the compound in phosphate buffered saline containing 1% DMSO at pH 7.4 after 2 hrs by HPLC analysis; format: physicochemical

| SMILES | IC50 [1] | IC50 [2] | IC50 [3] | IC50 [4] | solubility kinetic at 2 h [5] |
| --- | --- | --- | --- | --- | --- |
| Cc1cc(Oc2ccc3c(c2)OCO3)cc(C)c1-c1csc(NC(=O)c2ccncc2)n1 | 106 nM | 45.7 nM | 128 nM | 68 nM | – |
| COc1ccc(Oc2cc(C)c(-c3csc(NC(=O)c4ccncc4)n3)c(C)c2)cc1 | 48.6 nM | 34.9 nM | 37 nM | 32 nM | – |
| Cc1cc(C)c(-c2csc(NC(=O)c3ccccc3)n2)c(C)c1 | 3600 nM | 3200 nM | 2200 nM | 3200 nM | – |

Results, then the compound that gave them:

| IC50 [1] | IC50 [2] | IC50 [3] | IC50 [4] | solubility kinetic at 2 h [5] | SMILES |
| --- | --- | --- | --- | --- | --- |
| 620 nM | 380 nM | 300 nM | 310 nM | – | Cc1cc(C)c(-c2csc(NC(=O)Cc3ccncc3)n2)c(C)c1 |
| – | – | – | – | 3.33 µM (≈ 1.08 µg/mL) | Cc1cc(C)c(-c2csc(NC(=O)c3ccncc3)n2)c(C)c1 |
